From ChEMBL document CHEMBL5729557, “5-membered heteroaryl carboxamide compounds for treatment of HBV” (2023)
Where “and” joins values, the source holds several entries; their conditions need not be identical. Identical values can stand only once.

Test: Assay Measuring Activity of Test Compounds on Viral Production from HepAD38 Cells: HepAD38 cells grown in a T-150 flask (Corning, cat #: 430825) with Growth Medium (DMEM/F12 (1:1) (Hyclone, cat #: SH30023.02), 1× Pen/Strep (Invitrogen, cat #: 15140-122), 10% FBS (Tissue Culture Biologics, cat #: 101), 250 μg/mL G418 (Alfa Aesar, cat #: J62671), 1 μg/mL Tetracycline (Teknova, cat #: T3320)) were detached with 0.25% trypsin-EDTA to (Invitrogen, cat #: 25200-056). Tetracycline-free treatment medium (15 mL DMEM/F12 (1:1) 1× Pen/step, with 2% FBS, Tet-system approved (Clontech, cat #: 631106) were then added to mix, transferred into a 50 ml conical tube (Falcon, cat #: 21008-918,) and spun at 1300 rpm for 5 min. Pelleted cells were then re-suspended/washed with 50 mL of 1×DPBS (Invitrogen, cat #: 14190-136) 2 times and 50 mL treatment medium twice. HepAD38 cells were then re-suspended with 10 mL of treatment medium, syringed and counted. Wells of 96-well clear bottom TC plate (Corning, cat #: 3904,) were seeded at 50,000 cells/well in 180 μL of treatment medium, and 20 μL of either 10% DMSO (Sigma, cat #: D4540) as controls or a 10× solution of test compounds in 10% DMSO in treatment media was added for a final compound concentration starting at 10 μM, and plates were incubated in 5% CO2 incubator at 37° C. for 5 days.Subsequently viral load production was assayed by quantitative PCR (qPCR) of the HBV core sequence. PCR reaction mixture containing forward primers HBV-f 5′-CTGTGCCTTGGGTGGCTTT-3′ (IDT DNA), Reverse primers HBV-r 5′-[…]-3′ (IDT DNA), Fluorescent TaqMan™ Probes HBV-probe 5′-FAM/AGCTCCAAA/ZEN/[…]/3IABkFQ-3′ (IDT DNA), 10 μL/well of PerfeCTa® qPCR ToughMix® (Quanta Biosciences, Cat #: 95114-05K), and 6 μL/well of DEPC water (Alfa Aesar, cat #: J62087) was prepared. […] of supernatant was added to 16 μL of the reaction mixture in a qPCR plate (Applied Biosytems, Cat #: 4309849), sealed with a film (Applied Biosystems, Cat #: 4311971), centrifuged for a few seconds, and subsequently run on an Applied Biosystems VIIA7. The PCR mixture was incubated at 45° C. for 5 min, then 95° C. for 10 min, followed by 40 cycles of 10 seconds at 95° C. and 20 seconds at 60° C. Viral load was quantified against known HBV DNA standards by using ViiA™ 7 Software. Viral load in the supernatant from wells with treated cells were compared against viral load in supernatant from DMSO control wells (>3 per plate). Cell viability assay was performed with CellTiter-Glo Luminescent Cell Viability Assay (Promega, cat #: G7573) with modification. Mixed appropriate amount of CellTiter-Glo (CTG) 1×DPBS in a 1:1 ratio, added 100 uL of the mixture to each well followed completely removal of all supernatant in each well without touching cell surface. Incubated the plate at room temperature for 10 min on an orbital shaker, and then read the plate with a plate reader (TECAN M1000 or Envision).

SMILES: CSC1CC2CC(c3nn(C)c(N)c3C(=O)Nc3ccc(F)c(Cl)c3)CC2C1 (centres undefined)
- EC50 (HePAD38): < 100 nM

SMILES: CNC(=O)C1CC2CC(c3nn(C)c(N)c3C(=O)Nc3ccc(F)c(Cl)c3)CC2C1 (centres undefined)
- EC50 (HePAD38): < 100 nM

SMILES: Cn1cc([C@H]2CC[C@@H](c3nn(C)c(N)c3C(=O)Nc3ccc(F)c(Cl)c3)C2)cn1
- EC50 (HePAD38): < 100 nM

SMILES: COc1cccc(C2CCC(c3nn(C)c(N)c3C(=O)Nc3ccc(F)c(Cl)c3)C2)c1 (centres undefined)
- EC50 (HePAD38): < 100 nM

SMILES: Cn1nc([C@@H]2CC3CC(=NO)C[C@@H]3C2)c(C(=O)Nc2ccc(F)c(Cl)c2)c1N (some centres undefined)
- EC50 (HePAD38): < 100 nM

SMILES: Cn1nc([C@H]2CC3COC(=O)C[C@H]3C2)c(C(=O)Nc2ccc(F)c(Cl)c2)c1N (some centres undefined)
- EC50 (HePAD38): < 100 nM

SMILES: Cn1nc(C2CC3CC(O)(C(=O)NC4CC4)CC3C2)c(C(=O)Nc2ccc(F)c(Cl)c2)c1N (centres undefined)
- EC50 (HePAD38): in the range around 300 nM

SMILES: Cn1nc(C2CC3CC(NS(=O)(=O)C(F)(F)F)CC3C2)c(C(=O)Nc2ccc(F)c(Cl)c2)c1N (centres undefined)
- EC50 (HePAD38): < 100 nM

SMILES: Cn1nc(C2CC3CC(N4CCNC4=O)CC3C2)c(C(=O)Nc2ccc(F)c(Cl)c2)c1N (centres undefined)
- EC50 (HePAD38): < 100 nM

SMILES: Nc1[nH]nc(C2CC3CC(=O)CC3C2)c1C(=O)Nc1ccc(F)c(Cl)c1 (centres undefined)
- EC50 (HePAD38): in the range around 300 nM

SMILES: Cn1nc([C@@H]2CC3COC(=O)C[C@@H]3C2)c(C(=O)Nc2ccc(F)c(Cl)c2)c1N (some centres undefined)
- EC50 (HePAD38): in the range around 300 nM

SMILES: Cn1nc([C@@H]2CC3COC(=O)C[C@H]3C2)c(C(=O)Nc2ccc(F)c(Cl)c2)c1N (some centres undefined)
- EC50 (HePAD38): in the range around 300 nM

SMILES: COc1cccc([C@@H]2CC[C@H](c3nn(C)c(N)c3C(=O)Nc3ccc(F)c(Cl)c3)C2)c1
- EC50 (HePAD38): < 100 nM

SMILES: Cn1cc(-c2ccc([C@H]3CC[C@H](c4nn(C)c(N)c4C(=O)Nc4ccc(F)c(Cl)c4)C3)cc2)cn1
- EC50 (HePAD38): < 100 nM

SMILES: CCSC1CC2CC(c3nn(C)c(N)c3C(=O)Nc3ccc(F)c(Cl)c3)CC2C1 (centres undefined)
- EC50 (HePAD38): < 100 nM

SMILES: Cn1nc(C2CC3CC(C#N)CC3C2)c(C(=O)Nc2ccc(F)c(Cl)c2)c1N (centres undefined)
- EC50 (HePAD38): < 100 nM

SMILES: Cn1nc(C2CC3CC(OCC(F)(F)F)CC3C2)c(C(=O)Nc2ccc(F)c(Cl)c2)c1N (centres undefined)
- EC50 (HePAD38): < 100 nM

SMILES: CC(=O)N1CC2CC(c3nn(C)c(N)c3C(=O)Nc3ccc(F)c(Cl)c3)CC2C1 (centres undefined)
- EC50 (HePAD38): < 100 nM

SMILES: Cn1nc([C@H]2C[C@H](c3ccccc3)C2)c(C(=O)Nc2ccc(F)c(Cl)c2)c1N
- EC50 (HePAD38): in the range around 300 nM

SMILES: CC(=O)NC1CC2CC(c3nn(C)c(N)c3C(=O)Nc3ccc(F)c(Cl)c3)CC2C1 (centres undefined)
- EC50 (HePAD38): < 100 nM

SMILES: Cn1nc(C2CC3CC(OC(C)(C)C)CC3C2)c(C(=O)Nc2ccc(F)c(Cl)c2)c1N (centres undefined)
- EC50 (HePAD38): < 100 nM

SMILES: COC(=O)N1CC2CC(c3nn(C)c(N)c3C(=O)Nc3ccc(F)c(Cl)c3)CC2C1 (centres undefined)
- EC50 (HePAD38): < 100 nM

SMILES: Cn1nc(C2CC3CC(CCO)CC3C2)c(C(=O)Nc2ccc(F)c(Cl)c2)c1N (centres undefined)
- EC50 (HePAD38): < 100 nM

SMILES: COc1ccc([C@@H]2CC[C@H](c3nn(C)c(N)c3C(=O)Nc3ccc(F)c(Cl)c3)C2)cc1
- EC50: < 100 nM and in the range around 300 nM

SMILES: CC(C)S(=O)(=O)N1CC2CC(c3nn(C)c(N)c3C(=O)Nc3ccc(F)c(Cl)c3)CC2C1 (centres undefined)
- EC50 (HePAD38): < 100 nM

SMILES: Cn1nc(C2CC3CC(N4CCCS4(=O)=O)CC3C2)c(C(=O)Nc2ccc(F)c(Cl)c2)c1N (centres undefined)
- EC50 (HePAD38): < 100 nM

SMILES: Cn1cc(C2CC3CC(c4nn(C)c(N)c4C(=O)Nc4ccc(F)c(Cl)c4)CC3C2)cn1 (centres undefined)
- EC50 (HePAD38): < 100 nM

SMILES: CNC(=O)N1CC2CC(c3nn(C)c(N)c3C(=O)Nc3ccc(F)c(Cl)c3)CC2C1 (centres undefined)
- EC50 (HePAD38): < 100 nM

SMILES: Cn1nc(C2CCN(c3ccccc3)C2)c(C(=O)Nc2ccc(F)c(Cl)c2)c1N (centres undefined)
- EC50 (HePAD38): in the range around 300 nM

SMILES: Cn1nc(C2CC3CC([S+](C)[O-])CC3C2)c(C(=O)Nc2ccc(F)c(Cl)c2)c1N (centres undefined)
- EC50 (HePAD38): < 100 nM

SMILES: Cn1nc(C2CC3CC(S(C)(=O)=O)CC3C2)c(C(=O)Nc2ccc(F)c(Cl)c2)c1N (centres undefined)
- EC50 (HePAD38): < 100 nM

SMILES: Cn1nc(C2CC3CC(N4CCOC4=O)CC3C2)c(C(=O)Nc2ccc(F)c(Cl)c2)c1N (centres undefined)
- EC50 (HePAD38): < 100 nM

SMILES: Cn1nc(C2CC3COC(=O)CC3C2)c(C(=O)Nc2ccc(F)c(Cl)c2)c1N (centres undefined)
- EC50: < 100 nM
- EC50 (HePAD38): < 100 nM

SMILES: Cn1nc(C2CC3CN(S(C)(=O)=O)CC3C2)c(C(=O)Nc2ccc(F)c(Cl)c2)c1N (centres undefined)
- EC50 (HePAD38): < 100 nM

SMILES: Cn1nc(C2CC3CC(O)(CS(=O)(=O)NC4CC4)CC3C2)c(C(=O)Nc2ccc(F)c(Cl)c2)c1N (centres undefined)
- EC50: in the range around 300 nM and < 100 nM

SMILES: Cn1nc([C@@H]2CC[C@@H](c3ccccc3)C2)c(C(=O)Nc2ccc(F)c(Cl)c2)c1N
- EC50 (HePAD38): < 100 nM

SMILES: Cn1nc(C2CC3CC(O)(C4CC4)CC3C2)c(C(=O)Nc2ccc(F)c(Cl)c2)c1N (centres undefined)
- EC50 (HePAD38): < 100 nM

SMILES: Cn1nc([C@H]2CC3CC(=NO)C[C@@H]3C2)c(C(=O)Nc2ccc(F)c(Cl)c2)c1N (some centres undefined)
- EC50 (HePAD38): < 100 nM
